The values below are quoted from earlier work in patent US6436889B1, “Detergent compositions” (Unilever Home & Personal Care USA division of Conopco, Inc., priority 1999, dated 2002).

Read-outs that look alike come from different tables or passages of the source. Where only a bound is given, the exact number is not on record here.

[1] abbreviates: at 20° C., other common materials.

For the molecule `O=BO[O-].[Na+]` [Sodium perborate anhydrous], the “Water Solubility” value under setting [1] is recorded as 3.7 g/100 g. Turning to `O=P(O)(O)OP(=O)(O)OP(=O)(O)O` [Sodium tripolyphosphate anhydrous], the “Water Solubility” value under setting [1] is listed as 15 g/100 g. For the molecule `NC(N)=O` [Urea], the “Water Solubility” value (grams of solid required to form a saturated solution in 100 grams of water at 20° C., highly water-soluble materials) is reported as above 100 g/100 g.
